Measured values as given in ChEMBL document CHEMBL1201862, “PubChem BioAssay data set” (2004).
Several values for one entry are separate records, joined by “and”; a condition that tells them apart may be missing. Equal values may be shown once.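 Method: 48-hour compound exposure of cells in 96-well plates, five concentrations, linear interpolation of endpoints. GI50 is the concentration that inhibits growth by half.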 Activity calls are given as the source filed them. Cut-off read from the data, not from the text of the source: active = GI50 up to about 1.1 µM and inactive = higher.

How the values were obtained:
Experiment in all cases: NCI anticancer screen, dose series, 48 h
HL-60 = test system: HL-60
K562 = test system: K562
RXF 393 = test system: RXF 393
HT-29 = test system: HT-29
BT-549 = test system: BT-549
SW-620 = test system: SW-620
NCI-H460 = test system: NCI-H460
SK-MEL-5 = test system: SK-MEL-5
Hs-578T = test system: Hs-578T
HCT-116 = test system: HCT-116
SF-268 = test system: SF-268
RPMI-8226 = test system: RPMI-8226
LOX IMVI = test system: LOX IMVI
786-0 = test system: 786-0
IGROV-1 = test system: IGROV-1
SF-295 = test system: SF-295
MDA-MB-435 = test system: MDA-MB-435
OVCAR-8 = test system: OVCAR-8
SN12C = test system: SN12C
KM12 = test system: KM12
NCI-H522 = test system: NCI-H522
MOLT-4 = test system: MOLT-4
SNB-75 = test system: SNB-75
CCRF-CEM = test system: CCRF-CEM
MDA-N = test system: MDA-N
COLO 205 = test system: COLO 205
UACC-62 = test system: UACC-62
UACC-257 = test system: UACC-257
SK-OV-3 = test system: SK-OV-3
MCF7 = test system: MCF7
ACHN = test system: ACHN
PC-3 = test system: PC-3
OVCAR-4 = test system: OVCAR-4
A549 = test system: A549
TK-10 = test system: TK-10
SF-539 = test system: SF-539
M14 = test system: M14
HCC 2998 = test system: HCC 2998
HOP-92 = test system: HOP-92
Malme-3M = test system: Malme-3M
U-251 = test system: U-251
NCI-H226 = test system: NCI-H226
SK-MEL-28 = test system: SK-MEL-28
OVCAR-5 = test system: OVCAR-5
SNB-19 = test system: SNB-19
NCI/ADR-RES = test system: NCI/ADR-RES
MDA-MB-231 = test system: MDA-MB-231
HOP-62 = test system: HOP-62
CAKI-1 = test system: CAKI-1
A498 = test system: A498
EKVX = test system: EKVX
HCT-15 = test system: HCT-15
SK-MEL-2 = test system: SK-MEL-2
UO-31 = test system: UO-31
DU-145 = test system: DU-145
NCI-H23 = test system: NCI-H23
T47D = test system: T47D
SR = test system: SR
OVCAR-3 = test system: OVCAR-3

`CC(=O)OCC1OC(OC(C)(C)CC/C=C(\C)[C@@H]2C/C=C(\C)CC/C=C(\C)CC2)C(O)C(O)C1OC(C)=O` (stereo partly specified) was tested, and the GI50 (HL-60) was 28.5 µM (inactive), the GI50 (K562) was 28.7 µM (inactive) and 22.4 µM (inactive) and the GI50 (RXF 393) was > 100 µM (inactive). The GI50 (HT-29) was 24.5 µM (inactive) and 14.9 µM (inactive), the GI50 (BT-549) was 33.9 µM (inactive) and 19.7 µM (inactive) and the GI50 (SW-620) was 26.1 µM (inactive) and 24.2 µM (inactive). For the same molecule, the GI50 (NCI-H460) was 17.9 µM (inactive) and 23.2 µM (inactive), the GI50 (SK-MEL-5) was 17.5 µM (inactive) and 30.1 µM (inactive) and the GI50 (Hs-578T) was 0.3 µM (active). For the same molecule, the GI50 (HCT-116) was 25 µM (inactive) and 22.9 µM (inactive), the GI50 (SF-268) was 27 µM (inactive) and 19.8 µM (inactive) and the GI50 (RPMI-8226) was 25.5 µM (inactive) and 19.7 µM (inactive). For the same molecule, the GI50 (LOX IMVI) was 18.5 µM (inactive) and 21.3 µM (inactive), the GI50 (786-0) was 39.4 µM (inactive) and 23.6 µM (inactive) and the GI50 (IGROV-1) was 17.5 µM (inactive) and 21.6 µM (inactive). For the same molecule, the GI50 (SF-295) was 22.9 µM (inactive) and 42.3 µM (inactive), the GI50 (MDA-MB-435) was 32.8 µM (inactive) and 20.2 µM (inactive) and the GI50 (OVCAR-8) was 20.6 µM (inactive) and 28.6 µM (inactive). The GI50 (SN12C) was 32 µM (inactive) and 20 µM (inactive), the GI50 (KM12) was 26.7 µM (inactive) and 19 µM (inactive) and the GI50 (NCI-H522) was 18.9 µM (inactive) and 11.3 µM (inactive). The GI50 (MOLT-4) was 17 µM (inactive) and > 10 µM (inactive), the GI50 (SNB-75) was 17.4 µM (inactive) and 17.1 µM (inactive) and the GI50 (CCRF-CEM) was 22.5 µM (inactive) and 14 µM (inactive). For the same molecule, the GI50 (MDA-N) was 24.7 µM (inactive) and 19.7 µM (inactive).

With `CN(C)c1ccc(-c2c(C#N)c(O)n(NS(=O)(=O)c3ccccc3)c(=O)c2C#N)cc1` the GI50 (COLO 205) was > 100 µM (inactive), the GI50 (UACC-62) was > 100 µM (inactive) and the GI50 (HL-60) was > 100 µM (inactive). The GI50 (K562) was > 100 µM (inactive), the GI50 (RXF 393) was > 100 µM (inactive) and the GI50 (HT-29) was > 100 µM (inactive). For the same molecule, the GI50 (BT-549) was > 100 µM (inactive), the GI50 (SW-620) was > 100 µM (inactive) and the GI50 (NCI-H460) was > 100 µM (inactive). The GI50 (UACC-257) was > 100 µM (inactive), the GI50 (SK-OV-3) was 0.377 µM (active) and the GI50 (SK-MEL-5) was > 100 µM (inactive). The GI50 (MCF7) was > 100 µM (inactive), the GI50 (Hs-578T) was > 100 µM (inactive) and the GI50 (HCT-116) was > 100 µM (inactive). For the same molecule, the GI50 (SF-268) was > 100 µM (inactive), the GI50 (RPMI-8226) was > 100 µM (inactive) and the GI50 (ACHN) was > 100 µM (inactive). The GI50 (PC-3) was > 100 µM (inactive), the GI50 (LOX IMVI) was > 100 µM (inactive) and the GI50 (786-0) was > 100 µM (inactive). The GI50 (OVCAR-4) was > 100 µM (inactive), the GI50 (A549) was > 100 µM (inactive) and the GI50 (TK-10) was > 100 µM (inactive). The GI50 (IGROV-1) was > 100 µM (inactive), the GI50 (SF-539) was > 100 µM (inactive) and the GI50 (M14) was 0.643 µM (active). For the same molecule, the GI50 (HCC 2998) was > 100 µM (inactive), the GI50 (MDA-MB-435) was > 100 µM (inactive) and the GI50 (HOP-92) was > 100 µM (inactive). The GI50 (Malme-3M) was > 100 µM (inactive), the GI50 (U-251) was > 100 µM (inactive) and the GI50 (NCI-H226) was > 100 µM (inactive). For the same molecule, the GI50 (OVCAR-8) was > 100 µM (inactive), the GI50 (SK-MEL-28) was > 100 µM (inactive) and the GI50 (SN12C) was > 100 µM (inactive). The GI50 (OVCAR-5) was 0.912 µM (active), the GI50 (SNB-19) was > 100 µM (inactive) and the GI50 (KM12) was > 100 µM (inactive). For the same molecule, the GI50 (NCI-H522) was > 100 µM (inactive), the GI50 (NCI/ADR-RES) was > 100 µM (inactive) and the GI50 (MOLT-4) was > 100 µM (inactive). The GI50 (MDA-MB-231) was > 100 µM (inactive), the GI50 (SNB-75) was > 100 µM (inactive) and the GI50 (HOP-62) was > 100 µM (inactive). For the same molecule, the GI50 (CAKI-1) was > 100 µM (inactive), the GI50 (A498) was > 100 µM (inactive) and the GI50 (CCRF-CEM) was > 100 µM (inactive). The GI50 (EKVX) was > 100 µM (inactive), the GI50 (MDA-N) was > 100 µM (inactive) and the GI50 (HCT-15) was over 100 µM. For the same molecule, the GI50 (SK-MEL-2) was > 100 µM (inactive).

In the case of `CCC(=O)NC(Nc1cc(C)on1)(C(F)(F)F)C(F)(F)F`, the GI50 (UACC-62) is reported as > 100 µM (inactive), the GI50 (HL-60) is reported as > 100 µM (inactive) and the GI50 (K562) is reported as > 100 µM (inactive). The GI50 (RXF 393) was > 100 µM (inactive), the GI50 (HT-29) was > 100 µM (inactive) and the GI50 (BT-549) was > 100 µM (inactive). For the same molecule, the GI50 (SW-620) was > 100 µM (inactive), the GI50 (NCI-H460) was > 100 µM (inactive) and the GI50 (UACC-257) was > 100 µM (inactive). For the same molecule, the GI50 (SK-OV-3) was > 100 µM (inactive), the GI50 (SK-MEL-5) was > 100 µM (inactive) and the GI50 (MCF7) was > 100 µM (inactive). For the same molecule, the GI50 (Hs-578T) was > 100 µM (inactive), the GI50 (HCT-116) was > 100 µM (inactive) and the GI50 (UO-31) was 97.9 µM (inactive). The GI50 (SF-268) was > 100 µM (inactive), the GI50 (RPMI-8226) was > 100 µM (inactive) and the GI50 (ACHN) was > 100 µM (inactive). For the same molecule, the GI50 (LOX IMVI) was > 100 µM (inactive), the GI50 (786-0) was > 100 µM (inactive) and the GI50 (A549) was > 100 µM (inactive). For the same molecule, the GI50 (TK-10) was > 100 µM (inactive), the GI50 (IGROV-1) was > 100 µM (inactive) and the GI50 (SF-539) was > 100 µM (inactive). For the same molecule, the GI50 (M14) was > 100 µM (inactive), the GI50 (HCC 2998) was > 100 µM (inactive) and the GI50 (MDA-MB-435) was > 100 µM (inactive). For the same molecule, the GI50 (HOP-92) was > 100 µM (inactive), the GI50 (Malme-3M) was > 100 µM (inactive) and the GI50 (U-251) was > 100 µM (inactive). The GI50 (DU-145) was > 100 µM (inactive), the GI50 (NCI-H226) was > 100 µM (inactive) and the GI50 (NCI-H23) was > 100 µM (inactive). For the same molecule, the GI50 (OVCAR-8) was > 100 µM (inactive), the GI50 (SK-MEL-28) was > 100 µM (inactive) and the GI50 (SN12C) was > 100 µM (inactive). The GI50 (OVCAR-5) was > 100 µM (inactive), the GI50 (SNB-19) was > 100 µM (inactive) and the GI50 (KM12) was > 100 µM (inactive). The GI50 (NCI-H522) was > 100 µM (inactive), the GI50 (NCI/ADR-RES) was > 100 µM (inactive) and the GI50 (MOLT-4) was > 100 µM (inactive). For the same molecule, the GI50 (MDA-MB-231) was > 100 µM (inactive), the GI50 (SNB-75) was > 100 µM (inactive) and the GI50 (HOP-62) was > 100 µM (inactive). For the same molecule, the GI50 (T47D) was > 100 µM (inactive), the GI50 (CAKI-1) was > 100 µM (inactive) and the GI50 (A498) was > 100 µM (inactive). The GI50 (CCRF-CEM) was > 100 µM (inactive), the GI50 (EKVX) was > 100 µM (inactive) and the GI50 (SR) was > 100 µM (inactive). The GI50 (HCT-15) was over 100 µM, the GI50 (OVCAR-3) was > 100 µM (inactive) and the GI50 (SK-MEL-2) was > 100 µM (inactive).
